Measurements as given in patent publication US9365489B2, “Nitrooxy alkanoic acids and derivatives thereof in feed for reducing methane emission in ruminants, and/or to improve ruminant performance” (priority 2009, dated 2016).
Marks after values point to notes of the source that are not given here.

What was measured:
[1] = tested on: methanogenic archaea; assay: In vivo test: qPCR of methanogenic archaea in rumen contents; settings: rumen of sheep; for Methanogenic archaea, log10: control 3.59; for Methanogenic archaea concentration: control 5.60 × 10^3
From the text: (§1) The experimental design consisted of a cross-over design with 2 sheep per treatment in each period. The trial consisted in 3 consecutive periods of: 14 days of adaptation to the dose plus three consecutive days of methane measurements in chambers. This 14 days adaptation phase was established as the period necessary for wash out between different doses assayed in consecutive periods. During the last two days of methane measurements in chambers rumen contents samples were collected two hours after the morning feeding, sub sampled and immediately frozen prior DNA extraction and determination of volatile fatty acids and ammonia nitrogen concentration. Experimental animals were randomly allocated in three sub-groups of 2 animals and were assigned one of the three treatments (control, dose 1 and dose 2). The 3 sub-groups started the adaptation period with a gap of three days so they had the same number of adaptation days prior to methane measurement in the chambers. Each animal was held in cages with constant access to fresh water. The diet provided to the animals consisted of alfalfa hay chopped at 15 to 20 cm and concentrate in a proportion 1:1 at approximately 1.1 times the energy requirements maintenance level (Prieto et al, 1990) plus mineral-vitamin supplement. Fresh matter intake was monitored daily for each animal throughout the trial. The diet was provided to animals in two equal meals at 9.00 h and 14.00 h.
(§2) Samples of rumen contents were freeze-dried and thoroughly mixed by physical disruption using a bead beater (Mini-bead Beater; BioSpec Products, Bartlesville, Okla., USA) before DNA extraction, which was performed from approximately 50 mg sample using the QIAamp® DNA Stool Mini Kit (Qiagen Ltd, West Sussex, UK) following the manufacturer's instructions with the modification that a higher temperature (95° C.) was used for lysis incubation. DNA samples were used as templates for quantitative real-time PCR (qPCR) amplification. The numbers of total bacteria, total protozoa and total methanogenic archaea were quantified by Real Time—PCR (qPCR).
(§3) Different primer sets were used to amplify 16S rRNA gene-targeted total bacteria (Maeda et al. FEMS Inmunology and Medical Microbiology 39, 81-86, 2003), and protozoa (Sylvester et al. Journal Dairy Science. 88, 2083-2095 2005). […] The amplification efficiency was evaluated for each pair of primers with the following program: 5 min cycle at 95° C., 40 cycles at 95° C. for 15 s, 60° C. for 30 s, 72° C. for 55 s and, 75° C. during 6 s for fluorescent emission measures. The melting curve was built by increasing temperature from 55° C. to 95° C. and reading were taken every 5° C. […] The absolute amount of bacteria, protozoa and methanogenic archaea expressed as the number of DNA copies, was determined by using standards. […]

[2] = tested on: methane emissions by sheep; assay: In vivo test for methane inhibition: methane emissions in chambers; settings: for CH4, l/kg BW / CH4, l/day / CH4, l/kg DMI: average of 3 consecutive days; for CH4, l/kg BW: control 0.59; for CH4, l/day: control 25.5; for CH4, l/kg DMI: control 31.5; for reduction of methane emissions: vs control
From the text: as §1
The additive was provided twice a day through the ruminal cannula at the same time as the diet. The corresponding amount to each dose was added into 10 grams of grounded concentrate and wrapped in cellulose paper immediately before it was placed in the rumen. In order to avoid the volatility of the active molecule, both additives were kept in a cold room at 4° C. where the daily process of dispensing it in the cellulose bags was carried out.
The doses were 50 (dose 1) and 500 (dose 2) mg/animal per day. The higher dose was reached after 3 days of gradual increases (50, 200 and 500 mg), so the whole adaptation period was consequently extended for 3 more days.
On day 14 animals were introduced in the chambers for methane measurements for 3 consecutive days. Each chamber measured 1.8 m wide×1.8 m deep×1.5 m tall. Chamber air temperature was maintained between 15 and 20° C. Within each chamber, the animals were individually restrained in the same cages as in the adaptation period. Interruptions occurred daily at 8.30 h, when the chamber floor was cleaned, and the animals were fed. These interruptions had little impact on the daily emissions because fluxes were calculated three times per day and then averaged to derive the 23-hour emission value. Airflow and concentration of methane was measured for the intake and exhaust ducts of each chamber. Air velocity was continuously monitored over the day in each intake and exhaust duct for each chamber. The air stream in each of the 3 ducts (chamber 1, chamber 2 and background) was sub-sampled, and methane concentration was measured continuously using a gas analyzer ADM MGA3000 (Spurling works, Herts, UK). It took 8 min. to sequentially sample the airflow in all intake and exhaust ducts in both chambers (3 min. in chambers 1 and 2, 2 min for background). In summary, the flux of methane for each chamber was calculated for each of the 3-day periods of measurement from the difference of fresh-air input and chamber exhaust methane concentrations and mean air velocities.
Individual methane emissions, VFA profiles, ratio of acetate to propionate, ammonia N concentration, and log10 transformations of concentration of total bacteria, total protozoa and methanogenic archaea were analyzed for the following effects: additive dose, day of measurement, and their interaction using a repeated measures analysis of variance under the cross-over design arrangement of the experiment. The standard error of the mean (SEM) was computed for each analysis. […]

[3] = tested on: total bacteria (16SrRNA); assay: In vivo test: qPCR of total bacteria in rumen contents; settings: rumen of sheep; for Total bacteria concentration: control 1.19 × 10^9; for Total bacteria, log10: control 9.03
From the text: as §1, §2, §3

Compound: CCOC(=O)CCO[N+](=O)[O-] [Ethyl-3-nitrooxy propionate]
- Methanogenic archaea, log10 ([1]; Dose 1 (50 mg/animal per day)): 3.57 log10
- Methanogenic archaea concentration ([1]; Dose 1 (50 mg/animal per day)): 5.43 × 10^3 copy gene numbers/g fresh matter
- Methanogenic archaea, log10 ([1]; Dose 2 (500 mg/animal per day)): 3.45 log10
- Methanogenic archaea concentration ([1]; Dose 2 (500 mg/animal per day)): 4.34 × 10^3 copy gene numbers/g fresh matter
- CH4, l/kg BW ([2]; Dose 1 (50 mg/animal per day)): 0.51^ab l/kg BW
- CH4, l/day ([2]; Dose 1 (50 mg/animal per day)): 22.3^ab l/day
- CH4, l/kg DMI ([2]; Dose 1 (50 mg/animal per day)): 26.0^ab l/kg DMI
- CH4, l/kg BW ([2]; Dose 2 (500 mg/animal per day)): 0.42^b l/kg BW
- CH4, l/day ([2]; Dose 2 (500 mg/animal per day)): 18^b l/day
- CH4, l/kg DMI ([2]; Dose 2 (500 mg/animal per day)): 22.2^b l/kg DMI
- reduction of methane emissions ([2]; dose 1 (50 mg/animal per day)): 18%
- reduction of methane emissions ([2]; dose 2 (500 mg/animal per day), P<0.05): 29%
- inhibition of methanogenesis (conclusion in words) ([2]; sheep, 50 and 500 mg/animal per day): strong inhibitor of methanogenesis
- Total bacteria concentration ([3]; Dose 1 (50 mg/animal per day)): 1.43 × 10^9 copy gene numbers/g fresh matter
- Total bacteria, log10 ([3]; Dose 1 (50 mg/animal per day)): 9.08 log10
- Total bacteria concentration ([3]; Dose 2 (500 mg/animal per day)): 1.63 × 10^9 copy gene numbers/g fresh matter
- Total bacteria, log10 ([3]; Dose 2 (500 mg/animal per day)): 9.18 log10
